In ChEMBL document CHEMBL1146972, “Specific inhibitors of Plasmodium falciparum thioredoxin reductase as potential antimalarial agents” (Bioorg Med Chem Lett, 2006):

Columns and labels:
Thioredoxin reductase [1] = molecular target: T1, Thioredoxin reductase (Plasmodium falciparum 3D7, UniProt P61076); experiment: Inhibition of Plasmodium falciparum TrxR
T1 sequence (P61076 whole entry): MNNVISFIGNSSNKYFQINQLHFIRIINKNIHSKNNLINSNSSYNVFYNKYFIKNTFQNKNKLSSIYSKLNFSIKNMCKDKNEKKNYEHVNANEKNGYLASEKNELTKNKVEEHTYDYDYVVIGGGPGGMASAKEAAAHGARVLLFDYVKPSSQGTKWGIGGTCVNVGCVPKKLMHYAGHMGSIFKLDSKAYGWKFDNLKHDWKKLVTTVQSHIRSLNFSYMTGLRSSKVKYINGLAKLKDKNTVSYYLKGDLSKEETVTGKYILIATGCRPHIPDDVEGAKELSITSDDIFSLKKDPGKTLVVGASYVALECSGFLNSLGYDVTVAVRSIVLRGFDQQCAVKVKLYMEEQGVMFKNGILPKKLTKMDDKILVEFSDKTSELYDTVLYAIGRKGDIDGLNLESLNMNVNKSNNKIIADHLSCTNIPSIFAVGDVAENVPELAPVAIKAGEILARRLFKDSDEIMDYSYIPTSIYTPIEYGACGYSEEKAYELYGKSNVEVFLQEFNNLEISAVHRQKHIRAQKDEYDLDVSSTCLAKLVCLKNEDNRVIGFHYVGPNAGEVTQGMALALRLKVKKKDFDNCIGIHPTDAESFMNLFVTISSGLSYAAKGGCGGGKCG

Thioredoxin reductase [2] = molecular target: Thioredoxin reductase (Homo sapiens, UniProt Q16881+Q9NNW7+Q86VQ6); experiment: Inhibition of human TrxR; type: protein assay
[3] = molecular target: T2, Glutathione reductase, mitochondrial (Homo sapiens) (UniProt P00390); experiment: Inhibition of human GR at 2 uM
T2 sequence (whole entry): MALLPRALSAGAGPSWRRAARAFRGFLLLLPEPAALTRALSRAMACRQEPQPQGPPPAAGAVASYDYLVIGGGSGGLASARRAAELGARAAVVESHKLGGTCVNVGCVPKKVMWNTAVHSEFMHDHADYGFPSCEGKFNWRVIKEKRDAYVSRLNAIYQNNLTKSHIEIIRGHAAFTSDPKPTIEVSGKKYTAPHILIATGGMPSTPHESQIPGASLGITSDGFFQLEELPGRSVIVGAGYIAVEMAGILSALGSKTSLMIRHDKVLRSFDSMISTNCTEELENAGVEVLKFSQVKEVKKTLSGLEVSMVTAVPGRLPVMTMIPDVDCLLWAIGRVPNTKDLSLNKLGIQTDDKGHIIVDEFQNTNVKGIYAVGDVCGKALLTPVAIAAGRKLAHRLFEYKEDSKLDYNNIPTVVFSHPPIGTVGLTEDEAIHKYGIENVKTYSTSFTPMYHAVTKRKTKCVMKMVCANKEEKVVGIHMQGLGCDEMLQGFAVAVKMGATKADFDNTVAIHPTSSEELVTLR

[4] = molecular target: Glutathione reductase (Plasmodium falciparum 3D7) (UniProt O15770); experiment: Inhibition of Plasmodium falciparum GR at 2 uM
Plasmodium falciparum [5] = experiment: Growth inhibition against Plasmodium falciparum K1; type: functional, organism-based
[6] = molecular target: T3, Thioredoxin reductase (Plasmodium falciparum 3D7) (UniProt P61076); settings: 100 uM
T3 sequence (whole entry): T1 sequence (P61076 whole entry)

[7] = molecular target: T3, Thioredoxin reductase (Plasmodium falciparum 3D7); settings: 2 uM
[8] = molecular target: T3, Thioredoxin reductase (Plasmodium falciparum 3D7); settings: 2 uM; remark: listed apart in the source
Plasmodium falciparum [9] = experiment: Inhibition of Plasmodium falciparum K1 as [3H]hypoxanthine uptake; type: functional, organism-based
Thioredoxin reductase [10] = molecular target: T1, Thioredoxin reductase; experiment: Binding affinity to Plasmodium falciparum TrxR in presence of thioredoxin
Thioredoxin reductase [11] = molecular target: T1, Thioredoxin reductase; experiment: Binding affinity to Plasmodium falciparum TrxR in presence of NADPH
[12] = molecular target: T3, Thioredoxin reductase (Plasmodium falciparum 3D7); experiment: Inhibition of Plasmodium falciparum TrxR at 100 uM

Glutathione reductase (Plasmodium falciparum 3D7), sequence (O15770 whole entry): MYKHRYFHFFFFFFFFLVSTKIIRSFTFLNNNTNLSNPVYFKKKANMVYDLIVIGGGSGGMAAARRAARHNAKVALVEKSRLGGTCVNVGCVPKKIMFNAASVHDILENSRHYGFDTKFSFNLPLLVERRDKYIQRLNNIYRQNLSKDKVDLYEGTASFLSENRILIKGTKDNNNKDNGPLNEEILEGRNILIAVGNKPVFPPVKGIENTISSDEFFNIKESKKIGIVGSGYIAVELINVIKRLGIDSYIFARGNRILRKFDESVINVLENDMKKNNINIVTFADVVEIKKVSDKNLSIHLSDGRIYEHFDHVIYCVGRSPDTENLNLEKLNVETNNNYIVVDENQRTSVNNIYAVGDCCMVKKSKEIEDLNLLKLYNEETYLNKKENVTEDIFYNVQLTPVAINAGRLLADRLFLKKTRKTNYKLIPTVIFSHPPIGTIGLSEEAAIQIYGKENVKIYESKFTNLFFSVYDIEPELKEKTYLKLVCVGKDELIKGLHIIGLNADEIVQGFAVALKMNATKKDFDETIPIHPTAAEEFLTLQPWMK

| SMILES | IC50 (Thioredoxin reductase [1]) [µM] | IC50 (Thioredoxin reductase [2]) [µM] | other results |
| --- | --- | --- | --- |
| O=[N+]([O-])c1cc2nccnc2cc1[N+](=O)[O-] | 2 | 140 | inhibition [3]: 27%; inhibition [4]: 39%; IC50 (Plasmodium falciparum [5]): 15 µM; inhibition [6]: 15%; inhibition [7]: 15%; inhibition [8]: 70% |
| O=[N+]([O-])c1ccc2nccnc2c1 | 40 | > 200 | – |
| O=[N+]([O-])c1cc(C(F)(F)F)ccc1Sc1ccc(C(F)(F)F)cc1[N+](=O)[O-] | 20 | > 150 | – |
| O=[N+]([O-])c1ccc2c(c1[N+](=O)[O-])OCO2 | 10 | 80 | – |
| O=[N+]([O-])c1cc(C(F)(F)F)cc([N+](=O)[O-])c1Cl [CHLORALIN] | 8 | 100 | – |
| O=[N+]([O-])c1cccc2nsnc12 | 2 | 50 | IC50 (Plasmodium falciparum [9]): 2.9 µM; inhibition [3]: 81%; inhibition [4]: 69%; Ki (Thioredoxin reductase [10]): 0.65 µM; Ki (Thioredoxin reductase [11]): 1 µM; IC50 (Plasmodium falciparum [5]): 11 µM |
| O=[N+]([O-])c1cc([N+](=O)[O-])cc(C(F)(F)F)c1 | 30 | > 200 | – |
| O=[N+]([O-])c1ccc2nsnc2c1 | 10 | 90 | – |
| O=[N+]([O-])c1ccc2c(c1)OCO2 | – | > 200 | inhibition [12]: < 10% |
